From ChEMBL document CHEMBL1177848, “Synthesis of novel 6,6a,7,8-tetrahydro-5H-naphtho[1,2-e]pyrimido[4,5-b][1,4]diazepines under microwave irradiation as potential anti-tumor agents” (2010)
Activity calls are given as the source filed them. The rule behind the calls is not given here.

Columns and labels:
[1] = test system: SK-MEL-2; test: Growth inhibition of human SK-MEL-2 cells at 1 uM after 48 hrs by sulforhodamine B assay; assay type: functional, cell-based
[2] = test system: 786-0; test: Growth inhibition of human 786-0 cells at 1 uM after 48 hrs by sulforhodamine B assay; assay type: functional, cell-based
[3] = test system: NCI-H226; test: Growth inhibition of human NCI-H226 cells at 1 uM after 48 hrs by sulforhodamine B assay; assay type: functional, cell-based
[4] = test system: EKVX; test: Growth inhibition of human EKVX cells after 48 hrs by sulforhodamine B assay; assay type: functional
[5] = test system: HOP-62; test: Growth inhibition of human HOP62 cells at 1 uM after 48 hrs by sulforhodamine B assay; assay type: functional, cell-based
[6] = test system: HCT-116; test: Growth inhibition of human HCT116 cells at 1 uM after 48 hrs by sulforhodamine B assay; assay type: functional, cell-based
[7] = test system: T47D; test: Growth inhibition of human T47D cells at 1 uM after 48 hrs by sulforhodamine B assay; assay type: functional, cell-based
[8] = test system: SF-295; test: Growth inhibition of human SF295 cells at 1 uM after 48 hrs by sulforhodamine B assay; assay type: functional, cell-based
[9] = test system: Malme-3M; test: Growth inhibition of human MALME-3M cells at 1 uM after 48 hrs by sulforhodamine B assay; assay type: functional, cell-based
[10] = test system: HCT-116; test: Growth inhibition of human HCT116 cells after 48 hrs by sulforhodamine B assay; assay type: functional; conditions: HCT-116, 48 h
[11] = test system: MCF7; test: Growth inhibition of human MCF7 cells at 1 uM after 48 hrs by sulforhodamine B assay; assay type: functional, cell-based
[12] = test system: SK-MEL-28; test: Growth inhibition of human SK-MEL-28 cells at 1 uM after 48 hrs by sulforhodamine B assay; assay type: functional, cell-based
[13] = test system: UACC-62; test: Growth inhibition of human UACC62 cells at 1 uM after 48 hrs by sulforhodamine B assay; assay type: functional, cell-based
[14] = test system: HOP-92; test: Growth inhibition of human HOP92 cells after 48 hrs by sulforhodamine B assay; assay type: functional; conditions: HOP-92, 48 h
[15] = test system: HL-60; test: Growth inhibition of human HL-60(TB) cells at 1 uM after 48 hrs by sulforhodamine B assay; assay type: functional, cell-based
[16] = test system: U-251; test: Growth inhibition of human U251 cells after 48 hrs by sulforhodamine B assay; assay type: functional; conditions: U-251, 48 h
[17] = test system: KM12; test: Growth inhibition of human KM12 cells after 48 hrs by sulforhodamine B assay; assay type: functional; conditions: KM12, 48 h
[18] = test system: NCI-H460; test: Growth inhibition of human NCI-H460 cells at 1 uM after 48 hrs by sulforhodamine B assay; assay type: functional, cell-based
[19] = test system: UACC-257; test: Growth inhibition of human UACC257 cells at 1 uM after 48 hrs by sulforhodamine B assay; assay type: functional, cell-based
[20] = test system: OVCAR-4; test: Growth inhibition of human OVCAR4 cells at 1 uM after 48 hrs by sulforhodamine B assay; assay type: functional, cell-based
[21] = test system: ACHN; test: Growth inhibition of human ACHN cells after 48 hrs by sulforhodamine B assay; assay type: functional
[22] = test system: UO-31; test: Growth inhibition of human UO31 cells after 48 hrs by sulforhodamine B assay; assay type: functional; conditions: UO-31, 48 h
[23] = test system: SR; test: Growth inhibition of human SR cells after 48 hrs by sulforhodamine B assay; assay type: functional
[24] = test system: BT-549; test: Growth inhibition of human BT549 cells at 1 uM after 48 hrs by sulforhodamine B assay; assay type: functional, cell-based
[25] = test system: MCF7; test: Growth inhibition of human MCF7 cells after 48 hrs by sulforhodamine B assay; assay type: functional; conditions: MCF7, 48 h
[26] = test system: TK-10; test: Growth inhibition of human TK10 cells after 48 hrs by sulforhodamine B assay; assay type: functional; conditions: TK-10, 48 h
[27] = test system: NCI-H226; test: Growth inhibition of human NCI-H226 cells after 48 hrs by sulforhodamine B assay; assay type: functional; conditions: NCI-H226, 48 h
[28] = test system: HCT-15; test: Growth inhibition of human HCT15 cells after 48 hrs by sulforhodamine B assay; assay type: functional; conditions: HCT-15, 48 h
[29] = test system: RPMI-8226; test: Growth inhibition of human RPMI8226 cells after 48 hrs by sulforhodamine B assay; assay type: functional; conditions: RPMI-8226, 48 h
[30] = test system: NCI-H322M; test: Growth inhibition of human […] cells at 1 uM after 48 hrs by sulforhodamine B assay; assay type: functional, cell-based
[31] = test system: NCI/ADR-RES; test: Growth inhibition of human NCI/ADR-RES cells at 1 uM after 48 hrs by sulforhodamine B assay; assay type: functional, cell-based
[32] = test system: SF-539; test: Growth inhibition of human SF539 cells at 1 uM after 48 hrs by sulforhodamine B assay; assay type: functional, cell-based
[33] = test system: ACHN; test: Growth inhibition of human ACHN cells at 1 uM after 48 hrs by sulforhodamine B assay; assay type: functional, cell-based
[34] = test system: SW-620; test: Growth inhibition of human SW620 cells after 48 hrs by sulforhodamine B assay; assay type: functional; conditions: SW-620, 48 h
[35] = test system: BT-549; test: Growth inhibition of human BT549 cells after 48 hrs by sulforhodamine B assay; assay type: functional; conditions: BT-549, 48 h
[36] = test system: M14; test: Growth inhibition of human M14 cells at 1 uM after 48 hrs by sulforhodamine B assay; assay type: functional, cell-based
[37] = test system: IGROV-1; test: Growth inhibition of human IGROV1 cells at 1 uM after 48 hrs by sulforhodamine B assay; assay type: functional, cell-based
[38] = test system: NCI-H460; test: Growth inhibition of human NCI-H460 cells after 48 hrs by sulforhodamine B assay; assay type: functional; conditions: NCI-H460, 48 h
[39] = test system: UO-31; test: Growth inhibition of human UO31 cells at 1 uM after 48 hrs by sulforhodamine B assay; assay type: functional, cell-based
[40] = test system: SF530; test: Growth inhibition of human SF530 cells at 1 uM after 48 hrs by sulforhodamine B assay; assay type: functional, cell-based
[41] = test system: OVCAR-8; test: Growth inhibition of human OVCAR8 cells at 1 uM after 48 hrs by sulforhodamine B assay; assay type: functional, cell-based
[42] = test system: MOLT-4; test: Growth inhibition of human MOLT4 cells at 1 uM after 48 hrs by sulforhodamine B assay; assay type: functional, cell-based
[43] = test system: HCT-15; test: Growth inhibition of human HCT15 cells at 1 uM after 48 hrs by sulforhodamine B assay; assay type: functional, cell-based
[44] = test system: MDA-MB-435; test: Growth inhibition of human MDA-MB-435 cells at 1 uM after 48 hrs by sulforhodamine B assay; assay type: functional, cell-based
[45] = test system: PC-3; test: Growth inhibition of human PC3 cells after 48 hrs by sulforhodamine B assay; assay type: functional; conditions: PC-3, 48 h
[46] = test system: COLO 205; test: Growth inhibition of human COLO205 cells after 48 hrs by sulforhodamine B assay; assay type: functional; conditions: COLO 205, 48 h
[47] = test system: CCRF-CEM; test: Growth inhibition of human CCRF-CEM cells at 1 uM after 48 hrs by sulforhodamine B assay; assay type: functional, cell-based

Nc1nc(N)c2c(n1)NC(c1ccc(F)cc1)C1CCc3ccccc3C1=N2 (stereo not given)
growth inhibition (GI) [1]: inactive
growth inhibition (GI) [2]: inactive
growth inhibition (GI) [3]: inactive
GI50 [4]: 2.83 µM
LC50 [4]: 62.6 µM
growth inhibition (GI) [5]: inactive
growth inhibition (GI) [6]: inactive
growth inhibition (GI) [7]: inactive
growth inhibition (GI) [8]: inactive
growth inhibition (GI) [9]: inactive
GI50 [10]: 3.04 µM
LC50 [10]: 34.5 µM
growth inhibition (GI) [11]: inactive
growth inhibition (GI) [12]: inactive
growth inhibition (GI) [13]: inactive
GI50 [14]: 1.17 µM
LC50 (50% lethal concentration) [14]: 31.5 µM
growth inhibition (GI) [15]: inactive
GI50 [16]: 4.29 µM
LC50 [16]: 44.1 µM
GI50 [17]: 4.93 µM
LC50 (concentration killing 50% of cells) [17]: 43.1 µM
growth inhibition (GI) [18]: inactive
growth inhibition (GI) [19]: inactive
growth inhibition (GI) [20]: inactive
GI50 [21]: 4.96 µM
LC50 (50% lethal concentration) [21]: 42.2 µM
GI50 [22]: 3.34 µM
LC50 [22]: 55.3 µM
GI50 [23]: 1.65 µM
LC50 [23]: 12.5 µM
growth inhibition (GI) [24]: inactive
GI50 [25]: 2.67 µM
LC50 [25]: 36.3 µM
GI50 [26]: 3.63 µM
LC50 (50% lethal concentration) [26]: 50.9 µM
GI50 [27]: 5.97 µM
LC50 [27]: 74.4 µM
GI50 [28]: 3.99 µM
LC50 [28]: 43 µM
GI50 [29]: 1.81 µM
LC50 [29]: 62.8 µM
growth inhibition (GI) [30]: inactive
growth inhibition (GI) [31]: inactive
growth inhibition (GI) [32]: inactive
growth inhibition (GI) [33]: inactive
GI50 [34]: 4.87 µM
LC50 [34]: 42.9 µM
GI50 [35]: 3.89 µM
CC50 ([35]; read-out: LC50 (the source's name)): 43.5 µM
growth inhibition (GI) [36]: inactive
growth inhibition (GI) [37]: inactive
GI50 [38]: 3.76 µM
LC50 [38]: 43.3 µM
growth inhibition (GI) [39]: inactive
growth inhibition (GI) [40]: inactive
growth inhibition (GI) [41]: inactive
growth inhibition (GI) [42]: inactive
growth inhibition (GI) [43]: inactive
growth inhibition (GI) [44]: inactive
GI50 [45]: 2.03 µM
LC50 [45]: 40.3 µM
GI50 [46]: 1.62 µM
LC50 (50% lethal concentration) [46]: 80.7 µM
growth inhibition (GI) [47]: inactive
